A short description of series [1]: toxicology study in beagle dogs (NOAEL). The following applies: dog, in vivo. The method, then:
Forty healthy adult beagle dogs were randomly divided into 4 groups of 5 males (weighing 6.43-8.40 kg) and 5 females (weighing 5.39-6.77 kg) each: (1) Placebo group; (2) MN-08 (4 mg/kg) group; (2) MN-08 (12 mg/kg) group; (3) MN-08 (24 mg/kg) group. MN-08 tablets were administered to beagle dogs by gastric gavage for 4 weeks. The no observed adverse effect level (NOAEL) was examined according to previously described (Brownawell, Carmines, & Montesano, 2011).

The next series deals with 3×Tg‐AD mice. Put plainly: Golgi staining of dendritic spines and Western blotting of synaptic markers in 3×Tg-AD mice. The series is classed as in vivo. The method, then:
Triple transgenic 3×Tg‐AD mice were acquired from Jackson Laboratory and fostered in the Shenzhen Center for Disease Control and Prevention (Shenzhen, China). Eight‐month‐old 3×Tg‐AD mice were categorized into six groups: (1) 3×Tg‐AD +Vehicle group; (2) 3×Tg‐AD +MN‐08 (3 mg/kg) group; (3) 3×Tg‐AD +MN‐08 (6 mg/kg) group; (4) 3×Tg‐AD +MN‐08 (12 mg/kg) group; (5) 3×Tg‐AD +Memantine (Mem, 5 mg/kg) group; (6) 3×Tg‐AD +Donepezil (Done, 1.3 mg/kg, once daily) group; (7) Eight‐month‐old B6129SF2/J mice as a control group. MN‐08 and memantine were given twice daily (Done, once daily) by gastric gavage for 4 months from 8 months of age.
Golgi staining was used to determine hippocampal dendritic spine density by a Rapid Golgi Stain Kit (FD Neurotechnologies, Columbia, MD, USA) according to the manufacturer’s instructions. The brain was removed after the behavioral tests and incubated with impregnation solution in the dark at room temperature for 1 week. Impregnation solution was replaced with solution A and stored in the dark for 3 days. Brain sections (100 μm thickness) were placed on gelatin-coated microscope slides and then immersed in ddH2O. Solution B, Solution C, 80 % ethanol and xylene were used for 10 min, sequentially. The dendritic spines of hippocampal neurons were analyzed and counted in a blinded manner from six sections per animal by light microscopy (Olympus, Tokyo, Japan).
Western blotting analysis was performed as previously described with minor modifications (Huang, Li, & Nan, 2017). Proteins were extracted from hippocampal tissue and their concentrations determined by the BCA protein assay kit (Fdbio science, Hangzhou, China). The protein (20 μg) was separated on a 12% SDS-PAGE gel and then transferred to PVDF membranes. The membranes were blocked using 5 % nonfat dry milk for 2 h. […] Quantitative analysis of protein bands was conducted by the Carestream system (Carestream Health, Inc, USA).

The test system of series [2] is ERK and PI3K/Akt/GSK3β pathway. Put plainly: Western blotting of p-ERK, p-Akt, p-GSK3β and Bcl-2 in glutamate-challenged CGNs. Particulars: for upregulation of ERK1/2 phosphorylation induced by glutamate: 2 h pre‐treatment, glutamate 0.5 h. The format is cell-based, rat. An excerpt: To further characterize the neuroprotection of MN‐08, the level of the key signaling molecules, such as ERK, Akt, and GSK3β, was examined by Western blotting assay. […] Moreover, pre‐treatment with MN‐08 reversed expression of both p‐Akt and p‐GSK3β with the challenge of glutamate. Akt is an important downstream member of PI3K. To further confirm whether the PI3K/Akt pathway was associated with the neuroprotection of MN‐08 against glutamate‐induced excitotoxicity, specific PI3K inhibitor LY294002 was applied and incubated with MN‐08. […] Taken together, MN‐08 might protect against glutamate‐induce cytotoxicity by reversing the dysregulations of ERK pathway and PI3K/Akt/GSK3β pathway.
Western blotting analysis was performed as previously described with minor modifications (Huang, Li, & Nan, 2017). Proteins were extracted from hippocampal tissue and their concentrations determined by the BCA protein assay kit (Fdbio science, Hangzhou, China). The protein (20 μg) was separated on a 12% SDS-PAGE gel and then transferred to PVDF membranes. The membranes were blocked using 5 % nonfat dry milk for 2 h. The protein blots were incubated with the corresponding primary antibodies against p-Akt (#4060, 1:1000, Cell Signaling Technology), Akt (#4685, 1:1000, Cell Signaling Technology), BACE1 (#5606, 1:1000, Cell Signaling Technology), PS1 (#5643, 1:1000, Cell Signaling Technology), p-GSK3β (#5558, 1:1000, Cell Signaling Technology), GSK3β (#12456, 1:1000, Cell Signaling Technology), Bcl-2 (#3498, 1:1000, Cell Signaling Technology), Bax (#5023, 1:1000, Cell Signaling Technology), Cleaved caspase-3 (#9661, 1:1000, Cell Signaling Technology), Caspase-3 (#9662, 1:1000, Cell Signaling Technology), ADAM10 (#14194, 1:1000, Cell Signaling Technology), APP (#ab241592, 1:1000, Abcam), sAPPα (#ab126723, 1:1000, Abcam), NEP (#ab216341, 1:1000, Abcam), Synapsin I (#ab64581, 1:1000, Abcam), Synapsin II (#ab76494, 1:1000, Abcam), NR2A (#ab124913, 1:2000, Abcam), PSD95 (#ab18258, 1:1000, Abcam), Synaptophysin (#ab32127, 1:1000, Abcam), IDE (#ab133561, 1:1000, Abcam), Drebin (#ab178408, 1:1000, Abcam) and Tau-5 (#ab80579, 1:2000, Abcam) overnight at 4°C. After washing 3 times, the membranes were incubated with the respective HRP-conjugated secondary antibody. ECL Western blotting Detection Reagents (Fdbio science, Hangzhou, China) were used to perform Chemiluminescence detection. Quantitative analysis of protein bands was conducted by the Carestream system (Carestream Health, Inc, USA).
CGNs were prepared from the 8-day-old Sprague–Dawley rats as described in our previous publication (Li et al., 2005). Briefly, animals were anesthetized and sacrificed, and their cerebella were collected. Then, the freshly collected cerebella were rinsed in cold Kreb’s buffer-BSA and digested with 0.025 % trypsin incubated in a 37°C for 15 min. The reaction was stopped, and the single cell suspension was obtained through pipetting up and down the sedimentary tissue. CGNs were seeded in basal modified Eagle’s medium (ThermoFisher Scientific, Waltham, MA, USA) supplemented with 10 % fetal bovine serum, 25 mM KCl, 2 mM glutamine and 100 units/mL penicillin/streptomycin at a density of 1.5×10^6 cells/mL. Cytosine arabinoside (10 μM) was added to inhibit the growth of non-neuronal cells at 24 h after seeding. All experiments were carried out after 8 days in vitro. […]
A general note: Immunoblotting shows a protein as a band on a membrane.

By NOAEL is commonly meant the highest tested level that showed no adverse finding.

Turning to `CCC12CC3CC(N)(C1)CC(CO[N+](=O)[O-])(C3)C2` (stereo not drawn) [MN‐08], the NOAEL at 4 weeks in series [1] (both sexes, beagle, po) was 24 mg/kg. Also, the “reduction of dendritic spines (hippocampus CA1, Golgi staining)” value in the series with 3×Tg‐AD mice (MN‐08 6 mg/kg) is “markedly reversed”. Besides, the “expression of synaptic markers (SYP, PSD95, SYN I, SYN II, NR2A)” value in the series with 3×Tg‐AD mice (MN‐08 6 mg/kg, Western blot) is listed as “significantly increased”. In series [2] (MN‐08 30 µM pre‐treatment), the “expression of both p‐Akt and p‐GSK3β with the challenge of glutamate” value was “reversed”. In addition, in series [2] (MN‐08 30 µM), the “upregulation of ERK1/2 phosphorylation induced by glutamate” value is given as “significantly inhibited”. For the same compound, in series [2] (pre‐treatment MN‐08 30 µM), the “Bcl‐2 downregulation caused by glutamate” value is reported as “significantly reversed”.
Turning to `CC12CC3CC(C)(C1)CC(N)(C3)C2` [memantine, 1‐amino‐3,5‐dimethyladamantane], the NOAEL in series [1] (beagle dogs, memantine, regimen not stated, read-out: no observed adverse effect level (NOAEL)) was found to be 9 mg/kg. The “reduction of dendritic spines (hippocampus CA1, Golgi staining)” value with 3×Tg‐AD mice (memantine 5 mg/kg) is “markedly reversed”. Further, the “upregulation of ERK1/2 phosphorylation induced by glutamate” value in series [2] (memantine 10 µM) is “significantly inhibited”.

Source of the values: PMC8208785, “Therapeutic efficacy of novel memantine nitrate MN‐08 in animal models of Alzheimer’s disease” (Aging Cell, 2021).
